Legend:
[1] = test system: colon cancer cells HCT116; assay: MTT tumor proliferation IC50, HCT116; assay type: cell-based; details: Homo sapiens, HCT-116, 72 hours of incubation
Excerpt: (§1) IC50 (half maximal inhibitory concentration) refers to the half inhibitory concentration of a measured antagonist. It can indicate that a certain concentration of a certain drug or substance (inhibitor) induces tumor cell apoptosis by 50%, and this concentration is referred to as 50% inhibitory concentration, namely, the corresponding concentration when the ratio of apoptotic cells to the total number of cells is equal to 50%. The IC50 value can be used to measure the ability of a drug to induce apoptosis, that is, the higher the inducing ability, the lower the value, which also can indicate the tolerance degree of a certain cell to a drug on the contrary. • (1) Cells in the logarithmic phase are collected, the concentration of a cell suspension is adjusted, it is appropriate to place 100 μl cells in each well of a 96-well plate, the cells are inoculated into the plate to adjust the density of to-be-detected cells to be 1000-10000 cells/well, and edge wells are filled with sterile PBS. • (2) The cells are incubated under 5% CO2 at 37° C., an original culture medium is discarded after complete cell adherence, 200 μl of 1 wt % FBS culture medium containing 0.01 μM, 0.1 μM, 1 μM, 5 μM and 10 μM compound I-1 or cerulenin is added into each well, and there are 6 wells run in duplicate. An equal volume of DMSO is added as a negative control. • (3) After 72 hours of incubation, the cells are photographed for state recording, an original culture medium is discarded, and 100 μl of serum-free culture medium containing 0.5 mg/ml MTT (3-(4,5-dimethylthiazole-2)-2,5-diphenyltetrazolium bromide, trade name thiazolyl blue) is added into each well. • (4) After 2-4 hours of incubation, an original culture medium is discarded, and 150 μl of dimethyl sulfoxide (DMSO) is added into each well and shaken at 300 rpm for 10 minutes to fully dissolve purple crystals. • (5) The absorbance of each well at OD570 nm is measured by an enzyme-linked immunodetection instrument, the absorbance at OD630 nm is used as a reference, dual-wavelength measurement is carried out, and survival rate results are calculated according to the following formula: Cell survival rate=(OD570−OD630)/(OD570 negative control−OD630 negative control);
(§2) wherein, OD570: OD570 value of each treatment group; OD630: OD630 value of each treatment group; OD570 control: OD570 value of the negative control group; OD630 control: OD630 value of the negative control group. • (6) The survival rate results are processed with graphpad 6.0 software according to the concentration gradient, the analysis mode is log (inhibitor) vs. Nonlinear regression (curve fit), and the calculated IC50 value is expressed as x+/−SD.
(§3) The FASN enzyme activity measurement method shown in Experimental Example 18 is used to detect the effects of different substances on FASN enzyme activity. The method shown in Experimental Example 19 is used to detect the effects of different substances on the proliferation of tumor cells, cerulenin is used as a control, and the inhibition rates (%) of different substances on FASN enzyme activity and inhibition rates (IC50 nM) on tumor proliferation are calculated.

nematodes = assay: Accumulation of lipid droplets in nematodes, oil red staining (FIG. 7); assay type: in vivo; details: 10 μM, 9 days
Procedure: Nematodes are taken and resuspended in an M9 buffer, 3 ml of nematode suspension is added into each test tube, the compound shown as the formula I is added into an experimental group to make the final concentration reach 10 μM, a group with no addition of the compound shown as the formula I is used as a control, the suspension is subjected to shaking culture on a shaker at 200 rpm/min, oil red staining is carried out after 9 days, the suspension is placed on a glass slide for observing the lipid droplet condition under a microscope.

preadipocytes OP9 = assay: Lipid droplet formation in preadipocytes OP9, oil red O staining (FIG. 6); assay type: cell-based; details: 20 μM, differentiation with 1 μM rosiglitazone, OD510
Procedure: The effect of the compound shown as the formula I-1 on preadipocytes OP9 is detected: • (1) The cancer cells in the logarithmic growth phase are taken and inoculated into a 6 cm culture dish with the inoculation density of 2*10^6 cells, and incubated under 5% CO2 at 37° C. • (2) After cell adherence, 6 ml of 10% FBS culture medium containing 20 μM of the compound shown as the formula I is added into each dish with the culture medium as a negative control; cerulenin as a positive control; and 1 μM rosiglitazone (RSG) is used for differentiation. • (3) To observe the formation of lipid droplets, cells were incubated with 4% paraformaldehyde solution for 30 min at room temperature, washed with phosphate-buffered saline (PBS), and then stained with 0.5% oil red O in 60% isopropanol. • (4) After washing with distilled water, the stained cells were observed through a microscope, and then oil red O was extracted with isopropanol for quantification. This quantification was performed by measuring the absorbance of isopropanol solutions of oil red O at 510 nm.

[2] = test system: prostate cancer cells PC-3; assay: MTT tumor proliferation IC50, PC-3; assay type: cell-based; details: 72 hours of incubation
Excerpt: as §1, §2, §3

[3] = test system: prostate cancer cells PC3; assay: Cell division of PC3 cells, CFSE flow cytometry (FIG. 4); assay type: cell-based; details: 10 μM, 24 hours, versus cells without compound
Excerpt: […]

## O=C(CCCC(=O)Nc1ccc(Br)cc1)N/N=C/c1cc(Br)ccc1O [Compound I-1]
[1]
  IC50: 13 nM
nematodes
  accumulation of lipid droplets in nematodes: significantly lower than that of the control group
Preadipocytes OP9
  number of lipid droplets in cells OP9: reduced significantly
[2]
  IC50: 9 nM
[3]
  split peak number (cell division): significantly reduced

— US11911353B2, “Fatty acid synthase inhibitor and application thereof” (Jiangnan University, priority 2019, dated 2024)
